Laboratory results from patent US20100068174A1, “COMBINATION WITH BIS (THIOHYDRAZIDE AMIDES) FOR TREATING CANCER” (Synta Pharmaceuticals Corp., priority 2006, published 2010).

Experiments:
in vivo = details: female, SW, mouse, iv
Procedure: Tissue samples were prepared by homogenizing a weighed tissue sample in phosphor-buffered saline (PBS, ×1)+1% DTT (×1)+CH3CN (0.1% HCOOH) (×3)), centrifuged at 10,000 rpm×5 min; 150 μL supernatant+90 μL H2O. 100 μL prepared samples were subjected to HPLC, using 5-95% CH3CN (0.1% HCOOH) as the eluent. The running time was 15 min.

[1] = test system: Stage IV metastatic melanoma patients; details: RECIST, Efficacy Sample
Procedure: Patients were treated until progression of the disease. […] The tumor assessments were performed at baseline, Cycle 2, and every other Cycle thereafter.

Kp at 30 min (in vivo)	concentration at 30 min (in vivo) [µM]	SMILES	CR + PR (95% CI) [1]
~1.64	~51	CN(NC(=O)CC(=O)NN(C)C(=S)C1CC1)C(=S)C1CC1 [Compound (18)]	–
–	–	CC(=O)O[C@H]1C(=O)[C@@]2(C)[C@H]([C@H](OC(=O)c3ccccc3)[C@]3(O)C[C@H](OC(=O)[C@H](O)[C@@H](NC(=O)c4ccccc4)c4ccccc4)C(C)=C1C3(C)C)[C@]1(OC(C)=O)CO[C@@H]1C[C@@H]2O [Paclitaxel]	3.7% (0.1%,
